Assay results: patent US9725490B2, “ERAP1-derived peptide and use thereof” (TOKUSHIMA UNIVERSITY, priority 2011, dated 2017)

Tests used:
MCF-7 cells = experiment: E2-independent cell proliferation, MCF-7; format: cell-based, human; conditions: 1, 3, 5 and 10 μM, 24 hours
Experimental: FIG. 15 is a diagram illustrating the effects of the ERAP1-peptide on E2-independent cell functions. […] MCF-7 cells were treated with the ERAP1-peptide in each concentration (1, 3, 5 and 10 μM) or 10 nM tamoxifen as a positive control for 24 hours. […] MCF-7 cells were stimulated with 10 μM ERAP1-peptide treatment only, 10 nM E2 treatment only, or 10 μM ERAP1-peptide treatment and immediately 10 nM E2 for 24 hours, and the cytoplasm fraction was isolated from each of the treated cells. Then, the cytoplasm fraction was immunoprecipitated with anti-ERα antibody. Furthermore, with respect to the obtained sample, Western blotting analysis was performed using the antibodies shown in the figure.
MCF-7 cells or ZR-75-1 cells were seeded in 2×10^4/well, and KPL-3C cells were seeded in 1×10^4/well on a 48-well plate, and stood in a CO2 incubator for 24 hours. Then, for MCF-7 cells, the culture medium was exchanged with DMEM/F12 culture medium containing 10% FBS (Nichirei Biosciences, Tokyo, Japan), 1% antibiotic/antimycotic solution (Invitrogen), 0.1 mM NEAA48 (invitrogen), 1 mM sodium pyruvate and 10 μg/ml insulin (Sigma, St. Louis, Mo., USA) and not containing phenol red, and the cells were further pre-cultured for 24 hours. […] Then, 100 μl from each well was moved to a 96-well plate, and the absorbance at 450 nm was measured with a microplate reader.

[1] = test system: tamoxifen-resistant MCF-7 cells; experiment: Proliferation of tamoxifen-resistant MCF-7 cells; format: cell-based, human; conditions: 0, 5, 10 μM; in the presence of E2 and tamoxifen; 24 hours
Experimental: FIG. 14 is a diagram illustrating the suppression effect of the ERAP1-peptide on tamoxifen-resistant MCF-7 cells. […] The tamoxifen-resistant MCF-7 cells were treated with the ERAP1-peptide in each concentration (0, 5 and 10 μM). Then, immediately, the cells were stimulated with 10 nM E2 for 24 hours.
As the tamoxifen-resistant MCF-7 cell lines, those provided from Dr. Satoshi Inoue (Saitama Medical University Research Center for Genomic Medicine) under Material transfer agreement were offered for the experiment described below. The culture of tamoxifen-resistant MCF-7 cell was performed under the conditions recommended by the depositor. The tamoxifen-resistant MCF-7 cells were cultured in DMEM (Invitrogen, Carlsbad, Calif., USA) reinforced with 10% FBS (Nichirei Biosciences, Tokyo, Japan), 1% penicillin/streptomycin (Nacalai tesque, Kyoto, Japan), 1 μM tamoxifen (Sigma, St. Louis. Mo., USA).
Cell proliferation assay was evaluated using Cell-Counting Kit-8 (CCK-8, manufactured by Dojindo Company). First, tamoxifen-resistant MCF-7 cells were seeded in 2×10^4/well on a 48-well plate in DMEM/F12 culture medium containing phenol red and stood in a CO2 incubator for 24 hours. […] Then, 100 μl was moved to a 96-well plate from each well, and the absorbance at 450 nm was measured with a microplate reader.

Structure (SMILES): CSCC[C@H](NC(=O)[C@H](CCC(N)=O)NC(=O)[C@H](CCCNC(=N)N)NC(=O)[C@H](CCCNC(=N)N)NC(=O)[C@H](CCCNC(=N)N)NC(=O)[C@H](CCCNC(=N)N)NC(=O)[C@H](CCCNC(=N)N)NC(=O)[C@H](CCCNC(=N)N)NC(=O)[C@H](CCCNC(=N)N)NC(=O)[C@H](CCCNC(=N)N)NC(=O)[C@H](CCCNC(=N)N)NC(=O)[C@H](CCCNC(=N)N)NC(=O)[C@@H](N)CCCNC(=N)N)C(=O)N[C@@H](CC(C)C)C(=O)N[C@@H](CO)C(=O)N[C@@H](CC(=O)O)C(=O)N[C@@H](CC(C)C)C(=O)N[C@H](C(=O)N[C@@H](CC(C)C)C(=O)N[C@@H](CCC(N)=O)C(=O)N[C@@H](CC(C)C)C(=O)N[C@@H](CCCNC(=N)N)C(=O)N[C@@H](CCC(N)=O)C(=O)N[C@@H](CCCNC(=N)N)C(=O)O)[C@@H](C)O [ERAP1-peptide]
- cell proliferation in the absence of E2 (MCF-7 cells): dose-dependent cell proliferation suppression effect
- cell proliferation of Tam-R MCF-7 [1]: remarkably suppressed the cell proliferation in dose-dependent manner
